Here are results for 98 molecules from ChEMBL document CHEMBL3507680, “University of Dundee, Gates Library screen for HepG2 cell viability”.

This series in a line: Human HepG2 cell viability assay in 384 well format. It is filed as toxicity, cell-based. Details: dose 125 nL, time 70.5 hour; cytotoxicity at 70.5 h: concentration not given beside the values. The following applies: HepG2 cells, read-out: Inhibition.
`COc1ccc(CN2CCO[C@H]3[C@H](OCCN4CCCC4)CC[C@@H]32)cc1`: the cytotoxicity at 70.5 h is -9.88%.

Turning to `O=C(NC1CCc2[nH]c(=O)ccc2C1)C1CCOCC1` (stereo not drawn), the cytotoxicity at 70.5 h turned out to be 13.7%.

As to `COc1ccc(-c2noc(CN3CC(n4cc(C)cn4)C3)n2)cc1`, the cytotoxicity at 70.5 h was -11.2%.

Turning to `Cc1csc(C2(NCc3csc(C4CC4)n3)CCCC2)n1`, the cytotoxicity at 70.5 h was -9.17%.

Turning to `Cc1ccn(CC(=O)NCCCOc2ccccc2F)c(=O)c1`, the cytotoxicity at 70.5 h is -7.65%.

Turning to `COc1ccccc1-c1ncc(CN2C[C@@H](N(C)C)[C@H](C(C)C)C2)s1`, the cytotoxicity at 70.5 h was -5.83%.

For the molecule `CC(C)n1nnc(CC(=O)NCC2(c3cccc(F)c3)CCCC2)n1`, the cytotoxicity at 70.5 h was 15.1%.

For `Cc1cnc(N2CCN(C)CC2)nc1-c1ccnn1C`, the cytotoxicity at 70.5 h was -13.9%.

Consider `C(=C\c1ccc(CN2CCCC2)cn1)/c1ccccc1`, for which the cytotoxicity at 70.5 h is 6.88%.

Regarding `Cn1cccc1C(=O)N1Cc2c(CN3CCCCC3)nn(C)c2C1`, the cytotoxicity at 70.5 h amounted to 0.721%.

As to `Cc1nc2c(c(C)c1CC(=O)NC(C)c1ccccc1)c(=O)[nH]n2C` (stereo not drawn), the cytotoxicity at 70.5 h is -2.23%.

`Cc1nn(C)c(C)c1C1CCCN1CC(=O)N(C)c1nccs1` (stereo not drawn): the cytotoxicity at 70.5 h is -3.66%.

For the molecule `COc1cc(C)nc(N2CCN(C(=O)CN(C)C3CC3)CC2)n1`, the cytotoxicity at 70.5 h is -4.51%.

As to `CCc1cnc(N)nc1N[C@@H](C)c1ncccc1C`, the cytotoxicity at 70.5 h was -12.4%.

As to `CN(Cc1nnc(C2CC2)n1C)S(=O)(=O)c1ccccc1C#N`, the cytotoxicity at 70.5 h is -15.5%.

As for `Fc1ccc(CN2CCCC2c2cncc(-n3ccnc3)n2)cc1` (stereo not drawn), the cytotoxicity at 70.5 h was -1.28%.

Consider `CCNC(=O)CCC(=O)NCC1(O)CCC(C(C)(C)C)CC1` (stereo not drawn), for which the cytotoxicity at 70.5 h was -2.55%.

Turning to `CN(CCn1cnnc1)S(=O)(=O)c1ccc(C(F)(F)F)nc1`, the cytotoxicity at 70.5 h was -15.6%.

For `Cc1nn(C)c2ncc(S(=O)(=O)N3CCN4CCCC4C3)cc12` (stereo not drawn), the cytotoxicity at 70.5 h was -7.68%.

Turning to `CC1c2ncc(CNC(=O)C3CC3)n2CCN1Cc1ccccn1` (stereo not drawn), the cytotoxicity at 70.5 h came out at 0.0373%.

`COc1nn(C)c2c1CCCN(S(=O)(=O)c1ccccc1F)C2`: the cytotoxicity at 70.5 h was -1.52%.

For `COc1c(CNCc2cccnc2N2CCCCC2)c(C)nn1C`, the cytotoxicity at 70.5 h was determined as 2.37%.

`Cc1cc(S(C)(=O)=O)c(C)c(S(=O)(=O)NC2CCCC2)c1`: the cytotoxicity at 70.5 h is -8.42%.

For the molecule `Cc1ccc(OCC(=O)Nc2cnccc2SCCCO)cc1C`, the cytotoxicity at 70.5 h came to 9.63%.

With `COC(=O)c1sccc1CN1CCN(C(=O)c2ccc(C)o2)CC1`, the cytotoxicity at 70.5 h was -8.65%.

As for `C[C@@H]1CN(C(=O)c2ccncc2)CC[C@@]1(O)C1CCOCC1`, the cytotoxicity at 70.5 h is -1.23%.

As to `CS(=O)(=O)NCCCn1ccc2ccccc21`, the cytotoxicity at 70.5 h was -13.2%.

On to `CC1(C(=O)N2CCC(n3cc(C4(O)CCCC4)nn3)CC2)CCCCC1`, for which the cytotoxicity at 70.5 h is -9.72%.

As for `Cc1ncc(Cl)c(C(=O)N2CC(=O)N(C)c3ccccc32)n1`, the cytotoxicity at 70.5 h was -9.43%.

On to `CC(C)(C)c1coc([C@@H]2COCCN2Cc2ccccc2)n1`, for which the cytotoxicity at 70.5 h amounted to 0.308%.

For the molecule `Cc1cc(C)n(CC2CCCN2C(=O)c2ccc3c(c2)OCO3)n1` (stereo not drawn), the cytotoxicity at 70.5 h came to 6.92%.

`Cc1cc(C)cc(NC(=O)N(CCC#N)CCCN(C)C)c1`: the cytotoxicity at 70.5 h is -5.53%.

Take `CCOc1cc(Cl)c(CN2CCC3(CCCNC3=O)C2)cc1OC` (stereo not drawn): the cytotoxicity at 70.5 h is -5.69%.

Regarding `CN(Cc1cccc2cnccc12)C(=O)CCc1n[nH]c2c1CCCC2`, the cytotoxicity at 70.5 h was -9.31%.

Regarding `O=C(C1CCC1)N1CCO[C@@H]2CNC[C@@H]21`, the cytotoxicity at 70.5 h came out at 12.9%.

Turning to `Cc1cccc(CNC2CCCc3c2cnn3Cc2ccccc2)c1` (stereo not drawn), the cytotoxicity at 70.5 h was -7.85%.

On to `CSCC(=O)N[C@H]1CC[C@H](Nc2nccc(-c3ccncc3)n2)C1`, for which the cytotoxicity at 70.5 h was -0.057%.

`CNC(=O)c1csc(-c2cccnc2)n1`: the cytotoxicity at 70.5 h was found to be 2.96%.

Take `CC(=O)N1CCOCC(Cc2ccc3c(ccn3C(C)=O)c2)C1` (stereo not drawn): the cytotoxicity at 70.5 h was -2.4%.

Regarding `CCN1CCN(c2ncc3c(n2)CN(c2cnn(CC)c2)C3=O)CC1`, the cytotoxicity at 70.5 h was -6.35%.

On to `CCOC(=O)N1CCC(Oc2ccc(C(F)(F)F)cn2)CC1`, for which the cytotoxicity at 70.5 h is -7.88%.

Take `CC(C)(C)n1ncc2c1NC(=O)CC2c1cccs1` (stereo not drawn): the cytotoxicity at 70.5 h is -6.21%.

For the molecule `O=C1N(CC2CC2)C2(CCSCC2)NC12CCCC2`, the cytotoxicity at 70.5 h was 30.4%.

Take `Cc1noc([C@H]2C[C@H]3CN(C(=O)Cc4ccsc4)CC[C@H]3O2)n1`: the cytotoxicity at 70.5 h is -9.17%.

As to `CN1C(=O)CCCC12CCCN(C(=O)c1ccc3c(c1)OCO3)C2` (stereo not drawn), the cytotoxicity at 70.5 h is -15.9%.

On to `O=c1ccc(S(=O)(=O)N2CCCC2)cn1CC1CCCCO1` (stereo not drawn), for which the cytotoxicity at 70.5 h is -11.1%.

Consider `CN(C(=O)Cc1c[nH]c2ccccc12)C1CCN(c2ccccn2)CC1`, for which the cytotoxicity at 70.5 h was 9.62%.

Regarding `COc1ccc(Br)c(C(=O)NCC2CCN(S(=O)(=O)C3CC3)CC2)c1`, the cytotoxicity at 70.5 h amounted to 16.8%.

`CCOCC1CN(S(=O)(=O)c2ccccc2)Cc2nccn2C1` (stereo not drawn): the cytotoxicity at 70.5 h was found to be 13.5%.

Turning to `Cn1c(-c2ccccc2Cl)nc2cc(C(=O)NC(CO)CO)cnc21`, the cytotoxicity at 70.5 h was -8.01%.

As for `Cc1ccc(C)c(CN(C)Cc2nnc3ccccn23)c1`, the cytotoxicity at 70.5 h came out at 14.1%.

Regarding `O=C(NCC1(CO)CC1)c1nnn(-c2ccc(F)cc2)c1C1CC1`, the cytotoxicity at 70.5 h was -4.26%.

As for `CCN1CCCC1CNC(=O)Cc1c(C)n[nH]c1-c1ccc(OC)cc1` (stereo not drawn), the cytotoxicity at 70.5 h stood at 24.8%.

As for `COC1CCN(C(=O)c2nn(-c3ccc(C(C)C)cc3)cc2O)CC1`, the cytotoxicity at 70.5 h was 10.9%.

Take `CCS(=O)(=O)N1CCO[C@H]2[C@H](OCCCn3cccn3)CC[C@@H]21`: the cytotoxicity at 70.5 h was -9.45%.

Consider `Cc1cc(N2CCN(Cc3ccnn3C)CC2)cc(C2CCCN2)n1` (stereo not drawn), for which the cytotoxicity at 70.5 h was determined as 13%.

For the molecule `Cc1cccc(S(=O)(=O)NC(=O)c2ccc3c(c2)nnn3C)c1`, the cytotoxicity at 70.5 h was -5.75%.

With `Cc1cnn(CC2CCCN2C(=O)c2ccc3nnc(C)n3c2)c1` (stereo not drawn), the cytotoxicity at 70.5 h was -1.07%.

For `CCOCC(=O)N1CCC[C@]2(C[C@@H](OCc3ccncc3)CO2)C1`, the cytotoxicity at 70.5 h is -7.17%.

For the molecule `CN(C(=O)c1cnc(N2CCOCC2)nc1)C1Cc2ccccc2C1`, the cytotoxicity at 70.5 h is -12.4%.

Regarding `COc1ncccc1C(=O)Nc1ccccc1-c1ccc(=O)n(C)n1`, the cytotoxicity at 70.5 h turned out to be 3.64%.

With `CC(C)CC(CC(C)C)NC(=O)c1ccn(C)c(=O)c1`, the cytotoxicity at 70.5 h was determined as 1.9%.

With `CCOc1cc(C)ccc1NC(=O)N(C)Cc1cnn(C)c1`, the cytotoxicity at 70.5 h is -3.49%.

On to `Cc1ccc(C(=O)N2CCC3(CC2)NC(=O)CC3c2ccccc2)cn1` (stereo not drawn), for which the cytotoxicity at 70.5 h worked out at 5.79%.

On to `Cc1noc2nc(C3CC3)c(Cl)c(C(=O)O)c12`, for which the cytotoxicity at 70.5 h is -7.07%.

In the case of `COCCC(=O)NCc1ccc(-c2ccccc2C(=O)O)nc1`, the cytotoxicity at 70.5 h was -3.04%.

With `O=C(NCCc1noc(C2CCCC2)n1)c1cn2ccsc2n1`, the cytotoxicity at 70.5 h is -6.72%.

With `COCCN1CCC2(CC1)CC(COC)N(c1ncccn1)C2` (stereo not drawn), the cytotoxicity at 70.5 h was -9.91%.

Turning to `CNC(=O)c1cccc(CC2COCCN(Cc3ccsc3)C2)n1` (stereo not drawn), the cytotoxicity at 70.5 h was -6.49%.

Turning to `CCc1ccc2c(c1)C(CCNC(=O)c1sccc1C)C(=O)N2` (stereo not drawn), the cytotoxicity at 70.5 h is -3.5%.

In the case of `Cc1ccc(-c2noc(C(O)CC(C)C)n2)nn1` (stereo not drawn), the cytotoxicity at 70.5 h was -3.31%.

As to `Fc1cccc2[nH]c(CN3CCc4cncnc4C3)nc12`, the cytotoxicity at 70.5 h is -7.7%.

In the case of `COc1c(CNC2CCOc3c(Cl)cccc32)c(C(C)C)nn1C` (stereo not drawn), the cytotoxicity at 70.5 h was 11.4%.

As for `CO[C@H]1C[C@@H]2CN(C(=O)c3cccc4c3OCCO4)C[C@@H]2C1`, the cytotoxicity at 70.5 h worked out at 20.7%.

`Cn1cc([C@@H]2CN(S(C)(=O)=O)C[C@H]2N)c2ccncc21`: the cytotoxicity at 70.5 h came out at 19%.

Consider `CC(C)(C)n1ncc2c(=O)n(CC(=O)NCCc3ccccc3)cnc21`, for which the cytotoxicity at 70.5 h is -13.5%.

With `O=C1CCNC(=O)N1CC(=O)N1CCC1c1ccc(F)cc1` (stereo not drawn), the cytotoxicity at 70.5 h is -10.7%.

As to `COc1ccccc1C1CC(=O)Nc2c1c(=O)[nH]n2C(C)C` (stereo not drawn), the cytotoxicity at 70.5 h came out at 25.6%.

Turning to `COCCNC(=O)c1ccc(NCc2c(C)noc2C)cc1Cl`, the cytotoxicity at 70.5 h is -6.64%.

In the case of `COc1cc(C(=O)N2CCO[C@H]3[C@H](OCC4CC4)CC[C@@H]32)ccc1F`, the cytotoxicity at 70.5 h was -5.96%.

Regarding `Cc1nccn1[C@@H]1CC[C@@H](N(C)S(=O)(=O)c2ccc(F)cc2)[C@H]1O`, the cytotoxicity at 70.5 h is -3.16%.

In the case of `CCn1cnnc1CNC(=O)N1CCC(O)CC1`, the cytotoxicity at 70.5 h was -5.8%.

`Cc1ccc2c(c1)C(NC(C)C)CC21CCNCC1` (stereo not drawn): the cytotoxicity at 70.5 h was -1.86%.

On to `CC(C)C(=O)NC1CCCc2nc(N3CCOCC3)ncc21` (stereo not drawn), for which the cytotoxicity at 70.5 h was -0.959%.

With `c1cc(CN2C[C@@H]3OCCN(CCN4CCCC4)[C@@H]3C2)co1`, the cytotoxicity at 70.5 h was -10.1%.

With `CN(Cc1nncn1-c1cccc(C(F)(F)F)c1)S(C)(=O)=O`, the cytotoxicity at 70.5 h was found to be 7.25%.

For the molecule `N#Cc1ccc(Nc2nc3c(s2)C(=O)CN(CC2CC2)C3)cc1`, the cytotoxicity at 70.5 h is -4.09%.

As to `CCOc1ccc(-n2ccc3nc(N4CCCC4)ncc3c2=O)cc1`, the cytotoxicity at 70.5 h is -2.37%.

Take `COc1ccc(CN2CCC(C(N)=O)C2)c(Br)c1OC` (stereo not drawn): the cytotoxicity at 70.5 h came out at 0.0817%.

Consider `Cc1nc(CN2CCCC(N(C)c3ccc(C#N)cn3)C2)no1` (stereo not drawn), for which the cytotoxicity at 70.5 h is -2.54%.

Turning to `COc1ccnc(NC2CCN(CC(=O)Nc3ccccc3)CC2)n1`, the cytotoxicity at 70.5 h was 4.43%.

In the case of `CN(Cc1nc2ccccc2n1C)C(=O)CCc1cscn1`, the cytotoxicity at 70.5 h is -1.17%.

As for `NC(=O)C1CCN(C(=O)c2cc(S(=O)(=O)N3CCCC3)cs2)CC1`, the cytotoxicity at 70.5 h was -8.68%.

Consider `OCCOc1cc(F)ccc1NCc1cccc(F)c1F`, for which the cytotoxicity at 70.5 h turned out to be 1.35%.

For the molecule `CC[C@@H]1N(Cc2ccco2)CCC[C@]12CCC(=O)N2C`, the cytotoxicity at 70.5 h was found to be 12.7%.

`CCc1nccn1C1CCCN(C(=O)c2cnc3onc(C)c3c2)C1` (stereo not drawn): the cytotoxicity at 70.5 h is -2.35%.

Take `O=C1CC(C(=O)N2CCc3sccc3C2)CN1Cc1cccnc1` (stereo not drawn): the cytotoxicity at 70.5 h came to 2.13%.

Consider `Cc1nc(N(CCC(N)=O)Cc2ccccc2)c2nc(C)oc2n1`, for which the cytotoxicity at 70.5 h amounted to 9.6%.
